Reference: patent US7399638B2, “Prediction method for lipidosis” (Takeda Pharmaceutical Company Limited, priority 2003, dated 2008)
Like-named read-outs stand apart in the source and are kept apart here. Marks after values point to notes of the source that are not given here.

Key:
[1] = tested on: Crj: CD(SD)IGS rats; details: rat, in vivo
Procedure: (§1) The following 10 kinds of commercially available drugs were examined as the test compounds for a potential of inducing PLsis by histopathological examination and peripheral blood lymphocyte testing.
(§2) The following experiments were performed using the prematurely autopsied animals.
(§3) The high-dose dosing suspension was diluted about 3 fold and 10 fold with dispersant/solvent to prepare intermediate- and low-dose dosing suspensions. […] [For LD50, the Summary Basis of Approval (FDA) for each drug was referenced to.]
(§4) The animals were examined for mortality, general conditions, body weight, food consumption and the like using PM4800 (Mettler) and EB3200D (Shimadzu Corporation).

[2] = tested on: Crj: CD(SD)IGS rats; experiment: Urinary PAG/hippuric acid ratio by 1H NMR in rats
Procedure: During the urine pooling, the collecting vessels were kept in an ice-cooled condition. After the urine collection, the urine was centrifuged at 1500×g for 10 minutes, and not less than 1 mL of the supernatant was collected and stored under freezing (below −70° C.) in a microtube in an ultralow-temperature freezer until the measurement. For the negative control group, 24-hour pooled urine was collected under ice cooling; after the urine collection, the urine was stored at −30° C. until the measurement.

[3] = tested on: Crj: CD(SD)IGS rats; details: male, rat, in vivo, 3 days
Procedure: as §1, §2, §3, §4
Hematological examination was performed for parameters such as RBC count, hematocrit, hemoglobin concentration, mean corpuscular hemoglobin (MCH), mean corpuscular hemoglobin concentration (MCHC), mean corpuscular volume (MCV), platelet count, WBC count, reticulocyte count, differential WBC, and vacuolated lymphocyte ratio (for PLsis-inducing compounds only) using ADVIA120 (Bayer Medical Ltd.) and E-4000 (Sysmex Corporation).

[4] = rat 24-hour pooled urine, 30 mg/kg/day by gavage, 4 days, negative control drug, mean n = 2-4
[5] = rat 24-hour pooled urine, 100 mg/kg/day by gavage, 4 days, negative control drug, mean n = 2-4
[6] = rat urine, 25 mg/kg/day by gavage, 3 days, mean n = 3-4
[7] = rat urine, 75 mg/kg/day by gavage, 3 days, mean n = 3-4
[8] = rat urine, 250 mg/kg/day by gavage, 3 days, mean n = 3-4
[9] = rat urine, 30 mg/kg/day by gavage, 3 days, mean n = 3-4
[10] = rat urine, 100 mg/kg/day by gavage, 3 days, mean n = 3-4
[11] = rat urine, 300 mg/kg/day by gavage, 3 days, mean n = 3-4

With `COc1ccc([C@]2(C#N)CC[C@@H](C(=O)O)CC2)cc1OC1CCCC1` [Ariflo] the “Histopathological changes (PLsis): Liver” value ([1]; 30 mg/kg/day) was “−”, the “Histopathological changes (PLsis): Lung” value ([1]; 30 mg/kg/day) was “−” and the “Histopathological changes (PLsis): Lymph node” value ([1]; 30 mg/kg/day) was “−”. For the same compound, the “Histopathological changes (PLsis): Others” value ([1]; 30 mg/kg/day) was “−”, the “Histopathological changes (PLsis): Spleen” value ([1]; 30 mg/kg/day) was “−” and the “Histopathological changes (PLsis): Liver” value ([1]; 100 mg/kg/day) was “−”. For the same compound, the “Histopathological changes (PLsis): Lung” value ([1]; 100 mg/kg/day) was “−”, the “Histopathological changes (PLsis): Lymph node” value ([1]; 100 mg/kg/day) was “−” and the “Histopathological changes (PLsis): Others” value ([1]; 100 mg/kg/day) was “−”. The “Histopathological changes (PLsis): Spleen” value ([1]; 100 mg/kg/day) was “−”, the “PAG + hippuric acid/creatinine” value [2, 4] was 1.34 and the “PAG/PAG + hippuric acid” value [2, 4] was 9.70%. For the same compound, the “PAG/creatinine (first term of PAG + hippuric acid)” value (from here on “PAG/creatinine”) [2, 4] was 0.13, the PAG/hippuric acid [2, 4] was 12.16% and the “PAG + hippuric acid/creatinine” value [2, 5] was 1.14. The “PAG/PAG + hippuric acid” value [2, 5] was 14.04%, the “PAG/creatinine” value [2, 5] was 0.16 and the PAG/hippuric acid [2, 5] was 13.91%. The “hippuric acid/creatinine (second term of PAG + hippuric acid)” value [2, 5] was 0.98.
In the case of `CCN(CC)CCCC(C)Nc1ccnc2cc(Cl)ccc12` (centres unmarked) [Chloroquine, chloroquine], the “PAG + hippuric acid/creatinine” value [2, 6] is reported as 1.34, the “PAG/PAG + hippuric acid” value [2, 6] is reported as 13.25% and the “PAG/creatinine” value [2, 6] is reported as 0.18. The PAG/hippuric acid [2, 6] was 15.42%, the “PAG + hippuric acid/creatinine” value [2, 7] was 1.23 and the “PAG/creatinine” value [2, 7] was 0.24. The “hippuric acid/creatinine (second term of PAG + hippuric acid)” value [2, 7] was 1.00, the “PAG + hippuric acid/creatinine” value [2, 8] was 1.29 and the “PAG/creatinine” value [2, 8] was 0.52. For the same compound, the “hippuric acid/creatinine (second term of PAG + hippuric acid)” value [2, 8] was 0.76.
`CNCCC(Oc1ccc(C(F)(F)F)cc1)c1ccccc1` (centres unmarked) [Fluoxetine, fluoxetine] was tested, and the “Mean vacuolated lymphocyte ratio” value ([3]; 30 mg/kg/day) was 7%, the “Mean vacuolated lymphocyte ratio” value ([3]; 100 mg/kg/day) was 28% and the “Mean vacuolated lymphocyte ratio” value ([3]; 300 mg/kg/day) was 31%. The “Histopathological changes (PLsis): Liver” value ([1]; 30 mg/kg/day) was “+”, the “Histopathological changes (PLsis): Lung” value ([1]; 30 mg/kg/day) was “+” and the “Histopathological changes (PLsis): Lymph node” value ([1]; 30 mg/kg/day) was “+”. For the same compound, the “Histopathological changes (PLsis): Others” value ([1]; 30 mg/kg/day) was “Brain”, the “Histopathological changes (PLsis): Spleen” value ([1]; 30 mg/kg/day) was “−” and the “Histopathological changes (PLsis): Liver” value ([1]; 100 mg/kg/day) was “+”. For the same compound, the “Histopathological changes (PLsis): Lung” value ([1]; 100 mg/kg/day) was “+”, the “Histopathological changes (PLsis): Lymph node” value ([1]; 100 mg/kg/day) was “+” and the “Histopathological changes (PLsis): Others” value ([1]; 100 mg/kg/day) was “Brain”. The “Histopathological changes (PLsis): Spleen” value ([1]; 100 mg/kg/day) was “−”, the “Histopathological changes (PLsis): Liver” value ([1]; 300 mg/kg/day) was “+” and the “Histopathological changes (PLsis): Lung” value ([1]; 300 mg/kg/day) was “+”. The “Histopathological changes (PLsis): Lymph node” value ([1]; 300 mg/kg/day) was “−”, the “Histopathological changes (PLsis): Others” value ([1]; 300 mg/kg/day) was “−” and the “Histopathological changes (PLsis): Spleen” value ([1]; 300 mg/kg/day) was “−”. The “PAG + hippuric acid/creatinine” value [2, 9] was 1.13, the “PAG/PAG + hippuric acid” value [2, 9] was 15.60* % and the “PAG/creatinine” value [2, 9] was 0.17. The PAG/hippuric acid [2, 9] was 18.58* %, the “hippuric acid/creatinine (second term of PAG + hippuric acid)” value [2, 9] was 0.96 and the “PAG + hippuric acid/creatinine” value [2, 10] was 1.06. For the same compound, the “PAG/PAG + hippuric acid” value [2, 10] was 25.90* %, the “PAG/creatinine” value [2, 10] was 0.27 and the PAG/hippuric acid [2, 10] was 36.86* %. For the same compound, the “hippuric acid/creatinine (second term of PAG + hippuric acid)” value [2, 10] was 0.79, the “PAG + hippuric acid/creatinine” value [2, 11] was 0.67* and the “PAG/PAG + hippuric acid” value [2, 11] was 31.88* %. The “PAG/creatinine” value [2, 11] was 0.20, the PAG/hippuric acid [2, 11] was 56.32* % and the “hippuric acid/creatinine (second term of PAG + hippuric acid)” value [2, 11] was 0.47.
